Assay results published in US8030354B2, “Substituted biphenyl GPR40 modulators” (Amgen Inc., priority 2007, dated 2011).

What was measured:
GPR40 [1] = target: T1, GPR40 (Homo sapiens, UniProt O14842); assay: Inositol phosphate accumulation assay (A9_GPR40 cells); format: cell-based; design: expressed in transfected cells; host or cells: CHO cells stably transfected with GPR40 and aequorin; conditions: inositol phosphate assay, A9_GPR40 cells, 1 hour; read-out: IP3 EC50
Method in brief: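 A9 cells stably expressing GPR40 were labelled 16 h with 1 μCi/mL ^3H-inositol in inositol-free DMEM with dialysed FBS. Compounds in HBSS/10 mM LiCl with HSA were applied for 1 h at 37° C, then quenched with 20 mM formic acid. Accumulated [^3H] inositol phosphates were counted by SPA.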

GPR40 [2] = target: T1, GPR40; assay: Cell-based aequorin assay (CHO cells stably expressing GPR40 and aequorin); design: expressed in transfected cells; host or cells: CHO cells stably transfected with GPR40 and aequorin; conditions: activation of human GPR40, CHO cells, 0.01% HSA
Method in brief: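 CHO cells stably co-expressing GPR40 and aequorin, loaded with coelenterazine (1 ug/mL, 2 h, room temperature) in H/HBSS with 20 mM Hepes and 0.01% fatty acid-free HSA. Serially diluted compounds added; luminescence recorded over 20 s. EC50 from dose-response of maximum relative light units.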

T1 sequence (O14842 whole entry): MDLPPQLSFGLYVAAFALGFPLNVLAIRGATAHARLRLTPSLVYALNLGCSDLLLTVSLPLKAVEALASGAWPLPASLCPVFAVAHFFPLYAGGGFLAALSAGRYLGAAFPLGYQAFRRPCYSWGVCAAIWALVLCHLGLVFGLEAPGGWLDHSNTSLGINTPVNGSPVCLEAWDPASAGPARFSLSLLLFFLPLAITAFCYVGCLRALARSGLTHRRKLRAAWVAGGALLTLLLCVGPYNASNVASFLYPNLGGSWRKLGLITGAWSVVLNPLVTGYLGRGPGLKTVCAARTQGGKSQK

Compound | EC50 (GPR40 [1]) [µM] | EC50 (GPR40 [2]) [µM]
CCCCCc1cc(COc2cccc(C(C)CC(=O)O)c2)ccc1-c1cc(OC)ccc1F (single isomer, unassigned) [Example 64.14, (3R)-3-(3-(((2′-Fluoro-5′-(methyloxy)-2-pentyl-1,1′-biphenyl-4-yl)methyl)oxy)phenyl)butanoic acid or (3S)-3-(3-(((2′-fluoro-5′-(methyloxy)-2-pentyl-1,1′-biphenyl-4-yl)methyl)oxy)phenyl)butanoic acid] | 0.1 to 1 | 0.1 to 1
COc1cc(-c2ccc(COc3cccc([C@@H](CC(=O)O)C4CC4)c3F)cc2[C@@H](OC)C(C)(C)C)c(F)cn1 (single isomer, unassigned) [Example 83.21] | < 0.01 | 0.01 to 0.1
COc1ccc(F)c(-c2cc(F)c(COc3cccc(C(CC(=O)O)C4CC4)c3F)cc2C2=CCCC2(C)C)c1 (single isomer, unassigned) [Example 83.16, (3S)-3-Cyclopropyl-3-(3-(((2-(5,5-dimethyl-1-cyclopenten-1-yl)-2′,5-difluoro-5′-(methyloxy)-1,1′-biphenyl-4-yl)methyl)oxy)-2-fluorophenyl)propanoic acid or (3R)-3-cyclopropyl-3-(3-(((2-(5,5-dimethyl-1-cyclopenten-1-yl)-2′,5-difluoro-5′-(methyloxy)-1,1′-biphenyl-4-yl)methyl)oxy)-2-fluorophenyl)propanoic acid] | 0.01 to 0.1 | 0.1 to 1
C=CC(C)(C)C(OC)c1cc(COc2cccc(C(CC(=O)O)CC3CC3)c2)ccc1-c1cc(OC)ccc1F (single isomer, unassigned) [Example 69.38] | < 0.01 | 0.1 to 1
COc1cc(-c2cc(F)c(COc3cccc([C@@H](CC(=O)O)C4CC4)c3)cc2[C@H]2CCCC2(C)C)c(F)cn1 (single isomer, unassigned) [Example 66.77] | < 0.01 | 0.01 to 0.1
CC1(C)CCC[C@@H]1c1cc(COc2cccc([C@@H](CC(=O)O)C3CC3)c2F)ccc1-c1cc(F)ccc1F (single isomer, unassigned) [Example 83.25] | 0.01 to 0.1 | 0.1 to 1
COc1ccc(F)c(-c2ccc(COc3cccc(C(CC(=O)O)C4CCC4)c3)cc2C2CCCCCC2)c1 (single isomer, unassigned) [Example 79.7, (3S)-3-(3-(((2-Cycloheptyl-2′-fluoro-5′-(methyloxy)-1,1′-biphenyl-4-yl)methyl)oxy)phenyl)-3-cyclobutylpropanoic acid or (3R)-3-(3-(((2-cycloheptyl-2′-fluoro-5′-(methyloxy)-1,1′-biphenyl-4-yl)methyl)oxy)phenyl)-3-cyclobutylpropanoic acid] | 0.01 to 0.1 | 0.1 to 1
CCCC(C)(C)c1cc(COc2cccc(C(C)CC(=O)O)c2)ccc1-c1cc(OC)ccc1F (single isomer, unassigned) [Example 64.11, (3R)-3-(3-(((2-(1,1-Dimethylbutyl)-2′-fluoro-5′-(methyloxy)-1,1′-biphenyl-4-yl)methyl)oxy)phenyl)butanoic acid or (3S)-3-(3-(((2-(1,1-dimethylbutyl)-2′-fluoro-5′-(methyloxy)-1,1′-biphenyl-4-yl)methyl)oxy)phenyl)butanoic acid] | 0.1 to 1 | 0.1 to 1
C=C(c1cc(COc2cccc([C@@H](CC(=O)O)CC3CC3)c2)ccc1-c1cc(OC)ccc1F)C(C)(C)C (single isomer, unassigned) [Example 69.15, (3R)-4-Cyclopropyl-3-(3-(((2-(1-(1,1-dimethylethyl)ethenyl)-2′-fluoro-5′-(methyloxy)-1,1′-biphenyl-4-yl)methyl)oxy)phenyl)butanoic acid or (3S)-4-cyclopropyl-3-(3-(((2-(1-(1,1-dimethylethyl)ethenyl)-2′-fluoro-5′-(methyloxy)-1,1′-biphenyl-4-yl)methyl)oxy)phenyl)butanoic acid] | 0.01 to 0.1 | 0.1 to 1
COc1ccc(F)c(-c2ccc(COc3cccc(C(CC(=O)O)CC4CC4)c3F)cc2C2CCCCC2(C)C)c1 (single isomer, unassigned) [Example 84.6] | < 0.01 | 0.1 to 1
CCCC(CC(=O)O)c1cccc(OCc2ccc(-c3cccc(OC)c3)c(C3=CCCC3(C)C)c2)c1 (single isomer, unassigned) [Example 67.12, (3R)-3-(3-(((2-(5,5-Dimethyl-1-cyclopenten-1-yl)-3′-(methyloxy)-1,1′-biphenyl-4-yl)methyl)oxy)phenyl)hexanoic acid or (3S)-3-(3-(((2-(5,5-dimethyl-1-cyclopenten-1-yl)-3′-(methyloxy)-1,1′-biphenyl-4-yl)methyl)oxy)phenyl)hexanoic acid] | 0.01 to 0.1 | 0.1 to 1
COc1ccc(F)c(-c2ccc(COc3cccc([C@@H](CC(=O)O)C4CC4)c3)cc2C2=CCCC2)c1 (single isomer, unassigned) [Example 66.68, (S)-3-[3-(2-Cyclopent-1-enyl-2′-fluoro-5′-methoxy-biphenyl-4-ylmethoxy)-phenyl]-3-cyclopropyl-propionic acid or (R)-3-[3-(2-cyclopent-1-enyl-2′-fluoro-5′-methoxy-biphenyl-4-ylmethoxy)-phenyl]-3-cyclopropyl-propionic acid] | 0.01 to 0.1 | 0.1 to 1
COc1ccc(F)c(-c2ccc(COc3cccc(CCC(=O)O)c3)cc2C(C)(C)C)c1 [Example 34, 3-(3-(((2-(1,1-Dimethylethyl)-2′-fluoro-5′-(methyloxy)-1,1′-biphenyl-4-yl)methyl)oxy)phenyl)propanoic acid] | 0.1 to 1 | 0.1 to 1
COc1ccc(F)c(-c2cc(F)c(COc3cc(F)cc(C(CC(=O)O)CC4CC4)c3)cc2C2CCCC2(C)C)c1 (single isomer, unassigned) [Example 89.3] | < 0.01 | 0.1 to 1
COc1cc(-c2ccc(COc3cccc([C@@H](CC(=O)O)C4CC4)c3)cc2[C@@H]2CCCC2(C)C)c(F)cn1 (single isomer, unassigned) [Example 66.37] | 0.01 to 0.1 | 0.1 to 1
COc1ccc(F)c(-c2ccc(COc3cccc([C@@H](CC(=O)O)CC4CC4)c3)cc2C(F)C(C)(C)C)c1 (single isomer, unassigned) [Example 69.17, (3R)-4-cyclopropyl-3-(3-(((2′-fluoro-2-(1-fluoro-2,2-dimethylpropyl)-5′-(methyloxy)-1,1′-biphenyl-4-yl)methyl)oxy)phenyl)butanoic acid or (3S)-4-cyclopropyl-3-(3-(((2′-fluoro-2-(1-fluoro-2,2-dimethylpropyl)-5′-(methyloxy)-1,1′-biphenyl-4-yl)methyl)oxy)phenyl)butanoic acid] | < 0.01 | 0.1 to 1
CC[C@H](CC(=O)O)c1cccc(OCc2ccc(-c3cccc(OC)c3)c(C3CCCCCC3)c2)c1 (single isomer, unassigned) [Example 78.8, (3R)-3-(3-(((2-Cycloheptyl-3′-(methyloxy)-1,1′-biphenyl-4-yl)methyl)oxy)phenyl)pentanoic acid or (3S)-3-(3-(((2-cycloheptyl-3′-(methyloxy)-1,1′-biphenyl-4-yl)methyl)oxy)phenyl)pentanoic acid] | 0.01 to 0.1 | 0.1 to 1
COc1ccc(F)c(-c2ccc(COc3cccc(C(CC(=O)O)CC4CC4)c3F)cc2C(OC)C(C)(C)C)c1 (single isomer, unassigned) [Example 84.2] | < 0.01 | 0.1 to 1
